Consider 2 compounds from ChEMBL document CHEMBL1201862, “PubChem BioAssay data set” (2004).

Common to all, as to test: inhibition of tumour cell growth, NCI panel, 48 h
The subject of assay [1] is UO-31.
In assay [2] the test system is OVCAR-3.
Assay [3] has as its system HCT-15.
The subject of assay [4] is HT-29.
The subject of assay [5] is 786-0.
Assay [6] deals with SR.
Assay [7] relates to HCC 2998.
Assay [8] relates to NCI-H460.
The test system of assay [9] is M14.
For assay [10], the system named is U-251.
In assay [11] the test system is HL-60.
In assay [12] the test system is SF-268.
For assay [13], the system named is OVCAR-5.
Assay [14] has as its system OVCAR-8.
Assay [15] deals with OVCAR-4.
Assay [16] concerns UACC-62.
For assay [17], the system named is NCI-H226.
In assay [18] the test system is DMS-114.
Assay [19] relates to NCI-H522.

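Exposure lasted 48 hours, with cells grown in 96-well plates and compounds tested at five concentrations. At the GI50, growth is halved.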 Calls of active or inactive are those of the source. Cut-off read from the data, not from the text of the source: active = GI50 up to about 1.1 µM and inactive = higher.

As to `O=C1c2ccc3c4ccccc4n(Cc4ccccc4)c3c2C(=O)N1c1ccccc1`, the GI50 in assay [1] was 16.5 µM (inactive); in assay [2], 5.5 µM (inactive); in assay [3] it was 10.8 µM; in [4], 16.4 µM (inactive); in [5], 13.8 µM (inactive); in assay [6], 5.61 µM (inactive). For the same compound, the GI50 in [7] was 18.3 µM (inactive); in assay [8], 58.7 µM (inactive); in assay [9] it was 14.8 µM (inactive); in assay [10], 15.8 µM (inactive); in assay [11] it was 4.51 µM (inactive); in assay [12], 19.9 µM (inactive). Also, the GI50 in assay [13] was 17.6 µM (inactive); in assay [14] it was 15.6 µM (inactive); in [15] it was 8.3 µM (inactive); in assay [16], 17.3 µM (inactive); in [17] it was 12.8 µM (inactive); in [18], 17.9 µM (inactive). In addition, the GI50 in assay [19] is 2.62 µM (inactive).
With `COC(=O)C(C(=O)C(=O)Nc1cccc([N+](=O)[O-])c1)c1nc2ccc([N+](=O)[O-])cc2nc1O` (stereo not drawn), the GI50 in assay [1] is > 100 µM (inactive); in [2] it was > 100 µM (inactive); in assay [3], more than 100 µM; in assay [4] it was > 100 µM (inactive); in assay [5] it was > 100 µM (inactive); in [6], > 100 µM (inactive). Besides, the GI50 in assay [7], in [8], in assay [9], in assay [10], in [11] and in [12] was > 100 µM (inactive) throughout. Besides, the GI50 in [13], in assay [14], in [15], in [16], in assay [17] and in [18] was > 100 µM (inactive) throughout. Also, in assay [19], the GI50 is > 100 µM (inactive).
